According to the kinase profiling compilation of Christmann-Franck et al. (2016):
Values joined by “and” are separate entries in the source; they are usually repeats but may differ in a detail not shown here. Equal entries are not always repeated.

Each compound was assayed against CAMK2G (human) (UniProt Q13555) (assay: radiometric filter-binding kinase assay, Kinase HotSpot). Details: compound 0.5 µM; ATP 10 µM.

Row | Compound | residual activity [%]
1 | CCCNC(=O)Nc1ccc(Oc2ncnc3cc(OC)c(OC)cc23)cc1Cl | 90.5
2 | O=C1Nc2cc(Br)ccc2/C1=C1/Nc2ccccc2/C1=N\O | 28.3

Each compound was assayed against DAPK3 (human) (UniProt O43293) in the same assay as above. Details: compound 0.5 µM; ATP 10 µM.
DAPK3 (human), sequence (O43293 whole entry, looked up): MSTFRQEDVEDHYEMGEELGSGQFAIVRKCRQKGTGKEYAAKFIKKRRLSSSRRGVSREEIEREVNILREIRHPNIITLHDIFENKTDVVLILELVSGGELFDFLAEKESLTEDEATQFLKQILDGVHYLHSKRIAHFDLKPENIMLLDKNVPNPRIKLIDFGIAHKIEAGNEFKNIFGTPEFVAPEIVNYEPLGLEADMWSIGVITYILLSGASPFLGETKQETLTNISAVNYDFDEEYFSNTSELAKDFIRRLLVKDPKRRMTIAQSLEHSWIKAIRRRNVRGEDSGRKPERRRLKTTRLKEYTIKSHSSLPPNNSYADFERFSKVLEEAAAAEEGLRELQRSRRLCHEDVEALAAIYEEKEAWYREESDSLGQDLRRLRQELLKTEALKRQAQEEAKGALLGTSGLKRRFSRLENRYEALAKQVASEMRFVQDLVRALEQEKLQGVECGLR

Row | Compound | residual activity [%]
3 | Nc1nc(Nc2ccc(S(N)(=O)=O)cc2)nn1C(=O)c1c(F)cccc1F | 99.4
4 | CSc1nc(-c2ccc(F)cc2)c(-c2ccnc(NC(C)c3ccccc3)c2)[nH]1 (configuration not stated) | 94.3
5 | CCCNC(=O)Nc1ccc(Oc2ncnc3cc(OC)c(OC)cc23)cc1Cl | 88.8
6 | O=C1Nc2cc(Br)ccc2/C1=C1/Nc2ccccc2/C1=N\O | 84.9

These compounds were tested against MAP3K10 (human) (UniProt Q02779) in the same assay as above. Details: compound 0.5 µM; ATP 10 µM.

Row | Compound | residual activity [%]
7 | Nc1nc(Nc2ccc(S(N)(=O)=O)cc2)nn1C(=O)c1c(F)cccc1F | 77.8
8 | CSc1nc(-c2ccc(F)cc2)c(-c2ccnc(NC(C)c3ccccc3)c2)[nH]1 (configuration not stated) | 90.6
9 | CCCNC(=O)Nc1ccc(Oc2ncnc3cc(OC)c(OC)cc23)cc1Cl | 103
10 | O=C1Nc2cc(Br)ccc2/C1=C1/Nc2ccccc2/C1=N\O | 92.1

The compounds below were run against RPS6KA1 KD1 KD2 (human) (UniProt Q15418) in the same assay as above. Details: compound 0.5 µM; ATP 10 µM.
RPS6KA1 KD1 KD2 (human), sequence (Q15418 whole entry, looked up): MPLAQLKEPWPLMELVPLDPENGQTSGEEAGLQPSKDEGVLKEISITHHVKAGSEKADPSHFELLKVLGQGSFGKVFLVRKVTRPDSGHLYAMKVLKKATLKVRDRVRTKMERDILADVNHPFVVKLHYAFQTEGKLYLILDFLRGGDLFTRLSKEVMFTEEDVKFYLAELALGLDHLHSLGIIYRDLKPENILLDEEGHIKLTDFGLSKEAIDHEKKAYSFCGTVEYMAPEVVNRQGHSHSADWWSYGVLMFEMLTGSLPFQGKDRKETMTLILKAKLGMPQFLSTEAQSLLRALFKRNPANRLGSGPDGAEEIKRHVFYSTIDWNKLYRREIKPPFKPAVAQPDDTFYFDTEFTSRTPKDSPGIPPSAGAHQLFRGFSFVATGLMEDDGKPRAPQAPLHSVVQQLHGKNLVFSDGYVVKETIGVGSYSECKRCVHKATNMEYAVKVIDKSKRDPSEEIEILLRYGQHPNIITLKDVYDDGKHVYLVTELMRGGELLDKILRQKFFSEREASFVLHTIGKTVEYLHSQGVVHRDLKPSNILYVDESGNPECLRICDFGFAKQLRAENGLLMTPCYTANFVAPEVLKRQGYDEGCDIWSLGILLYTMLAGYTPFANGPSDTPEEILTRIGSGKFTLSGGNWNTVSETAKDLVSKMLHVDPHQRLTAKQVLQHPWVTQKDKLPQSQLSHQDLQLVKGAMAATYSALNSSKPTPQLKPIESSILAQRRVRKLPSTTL

Row | Compound | residual activity [%]
11 | Nc1nc(Nc2ccc(S(N)(=O)=O)cc2)nn1C(=O)c1c(F)cccc1F | 42.1
12 | CSc1nc(-c2ccc(F)cc2)c(-c2ccnc(NC(C)c3ccccc3)c2)[nH]1 (configuration not stated) | 99.4
13 | CCCNC(=O)Nc1ccc(Oc2ncnc3cc(OC)c(OC)cc23)cc1Cl | 92.3
14 | O=C1Nc2cc(Br)ccc2/C1=C1/Nc2ccccc2/C1=N\O | 47.2

What follows are compounds tested against CDK5 CDK5R1 p25 (human) (UniProt Q00535+Q15078) in the same assay as above. Details: compound 0.5 µM; ATP 10 µM.
CDK5 CDK5R1 p25 (human), sequence (Q00535 whole entry, looked up): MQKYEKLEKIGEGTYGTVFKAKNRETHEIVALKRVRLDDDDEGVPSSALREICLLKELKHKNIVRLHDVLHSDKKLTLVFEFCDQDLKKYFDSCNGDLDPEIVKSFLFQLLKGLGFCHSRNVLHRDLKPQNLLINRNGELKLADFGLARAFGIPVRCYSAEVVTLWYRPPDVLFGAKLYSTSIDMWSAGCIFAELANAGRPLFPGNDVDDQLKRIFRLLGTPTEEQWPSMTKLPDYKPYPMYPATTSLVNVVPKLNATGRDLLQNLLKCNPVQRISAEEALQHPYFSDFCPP
CDK5 CDK5R1 p25 (human), sequence (Q15078 whole entry, looked up): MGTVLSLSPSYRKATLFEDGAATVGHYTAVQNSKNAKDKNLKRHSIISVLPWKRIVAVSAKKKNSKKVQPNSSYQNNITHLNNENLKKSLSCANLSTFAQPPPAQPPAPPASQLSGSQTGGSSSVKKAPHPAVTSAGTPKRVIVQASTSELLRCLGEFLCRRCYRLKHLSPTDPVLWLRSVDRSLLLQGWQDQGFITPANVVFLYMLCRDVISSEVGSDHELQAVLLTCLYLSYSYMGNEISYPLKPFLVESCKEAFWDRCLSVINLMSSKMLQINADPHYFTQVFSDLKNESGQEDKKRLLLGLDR

Row | Compound | residual activity [%]
15 | Nc1nc(Nc2ccc(S(N)(=O)=O)cc2)nn1C(=O)c1c(F)cccc1F | 2.54
16 | CSc1nc(-c2ccc(F)cc2)c(-c2ccnc(NC(C)c3ccccc3)c2)[nH]1 (configuration not stated) | 76.1
17 | CCCNC(=O)Nc1ccc(Oc2ncnc3cc(OC)c(OC)cc23)cc1Cl | 95.7
18 | O=C1Nc2cc(Br)ccc2/C1=C1/Nc2ccccc2/C1=N\O | 20.4

The compounds below were run against JAK2 JH1 JH2 (human) (UniProt O60674) in the same assay as above. Details: compound 0.5 µM; ATP 10 µM.

Row | Compound | residual activity [%]
19 | Nc1nc(Nc2ccc(S(N)(=O)=O)cc2)nn1C(=O)c1c(F)cccc1F | 19.2
20 | CSc1nc(-c2ccc(F)cc2)c(-c2ccnc(NC(C)c3ccccc3)c2)[nH]1 (configuration not stated) | 102
21 | CCCNC(=O)Nc1ccc(Oc2ncnc3cc(OC)c(OC)cc23)cc1Cl | 96.9
22 | O=C1Nc2cc(Br)ccc2/C1=C1/Nc2ccccc2/C1=N\O | 93.8

The compounds below were run against CDK6 CCND3 (human) (UniProt P30281+Q00534) in the same assay as above. Details: compound 0.5 µM; ATP 10 µM.
CDK6 CCND3 (human), sequence (P30281 whole entry, looked up): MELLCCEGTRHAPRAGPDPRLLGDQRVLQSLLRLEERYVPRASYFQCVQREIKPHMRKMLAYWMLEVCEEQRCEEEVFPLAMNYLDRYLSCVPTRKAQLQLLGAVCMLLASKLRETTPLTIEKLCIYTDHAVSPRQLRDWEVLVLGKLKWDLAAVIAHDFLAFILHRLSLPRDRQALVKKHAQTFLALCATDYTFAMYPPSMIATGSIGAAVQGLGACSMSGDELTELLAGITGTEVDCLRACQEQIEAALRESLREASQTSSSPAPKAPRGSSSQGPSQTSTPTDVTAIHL
CDK6 CCND3 (human), sequence (Q00534 whole entry, looked up): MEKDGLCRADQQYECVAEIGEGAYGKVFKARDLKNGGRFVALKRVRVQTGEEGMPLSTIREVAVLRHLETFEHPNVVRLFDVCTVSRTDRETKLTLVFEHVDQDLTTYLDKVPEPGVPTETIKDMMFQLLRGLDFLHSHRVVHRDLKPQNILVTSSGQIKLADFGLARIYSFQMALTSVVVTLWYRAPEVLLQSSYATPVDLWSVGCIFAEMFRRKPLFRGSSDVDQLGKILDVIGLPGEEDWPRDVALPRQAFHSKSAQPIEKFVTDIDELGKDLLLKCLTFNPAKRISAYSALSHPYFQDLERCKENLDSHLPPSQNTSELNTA

Row | Compound | residual activity [%]
23 | Nc1nc(Nc2ccc(S(N)(=O)=O)cc2)nn1C(=O)c1c(F)cccc1F | 36.3
24 | CSc1nc(-c2ccc(F)cc2)c(-c2ccnc(NC(C)c3ccccc3)c2)[nH]1 (configuration not stated) | 98.3
25 | CCCNC(=O)Nc1ccc(Oc2ncnc3cc(OC)c(OC)cc23)cc1Cl | 89.5
26 | O=C1Nc2cc(Br)ccc2/C1=C1/Nc2ccccc2/C1=N\O | 25.4

What follows are compounds tested against CDK4 CCND1 (human) (UniProt P24385+P11802) in the same assay as above. Details: compound 0.5 µM; ATP 10 µM.
CDK4 CCND1 (human), sequence (P11802 whole entry, looked up): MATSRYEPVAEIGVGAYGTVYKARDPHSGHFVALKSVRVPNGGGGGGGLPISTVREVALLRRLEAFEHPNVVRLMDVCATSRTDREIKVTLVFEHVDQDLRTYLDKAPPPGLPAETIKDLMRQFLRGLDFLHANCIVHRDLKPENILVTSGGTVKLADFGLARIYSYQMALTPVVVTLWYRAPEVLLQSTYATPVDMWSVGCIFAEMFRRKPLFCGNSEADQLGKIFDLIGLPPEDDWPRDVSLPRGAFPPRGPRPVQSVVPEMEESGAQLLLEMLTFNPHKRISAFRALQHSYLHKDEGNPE
CDK4 CCND1 (human), sequence (P24385 whole entry, looked up): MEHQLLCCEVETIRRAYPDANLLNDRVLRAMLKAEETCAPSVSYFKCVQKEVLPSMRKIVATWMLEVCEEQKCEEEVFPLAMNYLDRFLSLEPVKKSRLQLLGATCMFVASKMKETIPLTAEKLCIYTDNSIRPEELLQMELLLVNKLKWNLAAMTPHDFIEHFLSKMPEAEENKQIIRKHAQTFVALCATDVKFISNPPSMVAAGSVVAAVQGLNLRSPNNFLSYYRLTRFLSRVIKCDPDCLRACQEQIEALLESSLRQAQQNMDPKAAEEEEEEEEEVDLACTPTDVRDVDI

Row | Compound | residual activity [%]
27 | Nc1nc(Nc2ccc(S(N)(=O)=O)cc2)nn1C(=O)c1c(F)cccc1F | 20
28 | CSc1nc(-c2ccc(F)cc2)c(-c2ccnc(NC(C)c3ccccc3)c2)[nH]1 (configuration not stated) | 109
29 | CCCNC(=O)Nc1ccc(Oc2ncnc3cc(OC)c(OC)cc23)cc1Cl | 102
30 | O=C1Nc2cc(Br)ccc2/C1=C1/Nc2ccccc2/C1=N\O | 93.4

These compounds were tested against PBK (human) (UniProt Q96KB5) in the same assay as above. Details: compound 0.5 µM; ATP 10 µM.
PBK (human), sequence (Q96KB5 whole entry, looked up): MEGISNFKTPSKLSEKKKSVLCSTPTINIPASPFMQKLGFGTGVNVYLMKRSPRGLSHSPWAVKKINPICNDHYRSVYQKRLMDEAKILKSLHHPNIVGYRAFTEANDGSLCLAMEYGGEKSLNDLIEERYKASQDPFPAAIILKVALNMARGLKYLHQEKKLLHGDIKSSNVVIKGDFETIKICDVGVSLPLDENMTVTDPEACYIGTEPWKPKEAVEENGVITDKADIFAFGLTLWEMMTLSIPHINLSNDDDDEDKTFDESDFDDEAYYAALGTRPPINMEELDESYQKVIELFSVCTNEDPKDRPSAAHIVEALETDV

Row | Compound | residual activity [%]
31 | Nc1nc(Nc2ccc(S(N)(=O)=O)cc2)nn1C(=O)c1c(F)cccc1F | 92.1
32 | CSc1nc(-c2ccc(F)cc2)c(-c2ccnc(NC(C)c3ccccc3)c2)[nH]1 (configuration not stated) | 109
33 | CCCNC(=O)Nc1ccc(Oc2ncnc3cc(OC)c(OC)cc23)cc1Cl | 66.2
34 | O=C1Nc2cc(Br)ccc2/C1=C1/Nc2ccccc2/C1=N\O | 109

What follows are compounds tested against CLK1 (human) (UniProt P49759) in the same assay as above. Details: compound 0.5 µM; ATP 10 µM.

Row | Compound | residual activity [%]
35 | Nc1nc(Nc2ccc(S(N)(=O)=O)cc2)nn1C(=O)c1c(F)cccc1F | 85.1
36 | CSc1nc(-c2ccc(F)cc2)c(-c2ccnc(NC(C)c3ccccc3)c2)[nH]1 (configuration not stated) | 96.8
37 | CCCNC(=O)Nc1ccc(Oc2ncnc3cc(OC)c(OC)cc23)cc1Cl | 96.2
38 | O=C1Nc2cc(Br)ccc2/C1=C1/Nc2ccccc2/C1=N\O | 93.1

Each compound was assayed against MAPK8 (human) (UniProt P45983) in the same assay as above. Details: compound 0.5 µM; ATP 10 µM.

Row | Compound | residual activity [%]
39 | Nc1nc(Nc2ccc(S(N)(=O)=O)cc2)nn1C(=O)c1c(F)cccc1F | 85.9
40 | CSc1nc(-c2ccc(F)cc2)c(-c2ccnc(NC(C)c3ccccc3)c2)[nH]1 (configuration not stated) | 86.3
41 | CCCNC(=O)Nc1ccc(Oc2ncnc3cc(OC)c(OC)cc23)cc1Cl | 107
42 | O=C1Nc2cc(Br)ccc2/C1=C1/Nc2ccccc2/C1=N\O | 98.7

These compounds were tested against STK16 (human) (UniProt O75716) in the same assay as above. Details: compound 0.5 µM; ATP 10 µM.
STK16 (human), sequence (O75716 whole entry, looked up): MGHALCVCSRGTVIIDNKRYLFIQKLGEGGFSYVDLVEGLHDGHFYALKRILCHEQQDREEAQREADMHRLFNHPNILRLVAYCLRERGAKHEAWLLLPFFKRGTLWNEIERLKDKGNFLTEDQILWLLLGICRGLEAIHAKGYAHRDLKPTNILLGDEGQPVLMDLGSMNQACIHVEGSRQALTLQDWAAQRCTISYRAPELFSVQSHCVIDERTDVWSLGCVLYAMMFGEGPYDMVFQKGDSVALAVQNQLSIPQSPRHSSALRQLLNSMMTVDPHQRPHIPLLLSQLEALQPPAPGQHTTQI

Row | Compound | residual activity [%]
43 | Nc1nc(Nc2ccc(S(N)(=O)=O)cc2)nn1C(=O)c1c(F)cccc1F | 48.5
44 | CSc1nc(-c2ccc(F)cc2)c(-c2ccnc(NC(C)c3ccccc3)c2)[nH]1 (configuration not stated) | 95.1
45 | CCCNC(=O)Nc1ccc(Oc2ncnc3cc(OC)c(OC)cc23)cc1Cl | 93.4
46 | O=C1Nc2cc(Br)ccc2/C1=C1/Nc2ccccc2/C1=N\O | 64

Each compound was assayed against FGFR4 (human) (UniProt P22455) in the same assay as above. Details: compound 0.5 µM; ATP 10 µM.

Row | Compound | residual activity [%]
47 | Nc1nc(Nc2ccc(S(N)(=O)=O)cc2)nn1C(=O)c1c(F)cccc1F | 90.3
48 | CSc1nc(-c2ccc(F)cc2)c(-c2ccnc(NC(C)c3ccccc3)c2)[nH]1 (configuration not stated) | 102
49 | CCCNC(=O)Nc1ccc(Oc2ncnc3cc(OC)c(OC)cc23)cc1Cl | 73.9
50 | O=C1Nc2cc(Br)ccc2/C1=C1/Nc2ccccc2/C1=N\O | 79.6

The compounds below were run against MAP3K5 (human) (UniProt Q99683) in the same assay as above. Details: compound 0.5 µM; ATP 10 µM.

Row | Compound | residual activity [%]
51 | Nc1nc(Nc2ccc(S(N)(=O)=O)cc2)nn1C(=O)c1c(F)cccc1F | 103
52 | CSc1nc(-c2ccc(F)cc2)c(-c2ccnc(NC(C)c3ccccc3)c2)[nH]1 (configuration not stated) | 106
53 | CCCNC(=O)Nc1ccc(Oc2ncnc3cc(OC)c(OC)cc23)cc1Cl | 102
54 | O=C1Nc2cc(Br)ccc2/C1=C1/Nc2ccccc2/C1=N\O | 91.6

What follows are compounds tested against MINK1 (human) (UniProt Q8N4C8) in the same assay as above. Details: compound 0.5 µM; ATP 10 µM.

Row | Compound | residual activity [%]
55 | Nc1nc(Nc2ccc(S(N)(=O)=O)cc2)nn1C(=O)c1c(F)cccc1F | 98.1
56 | CSc1nc(-c2ccc(F)cc2)c(-c2ccnc(NC(C)c3ccccc3)c2)[nH]1 (configuration not stated) | 89.6
57 | CCCNC(=O)Nc1ccc(Oc2ncnc3cc(OC)c(OC)cc23)cc1Cl | 90.1
58 | O=C1Nc2cc(Br)ccc2/C1=C1/Nc2ccccc2/C1=N\O | 47.8

Each compound was assayed against CDK3 CCNE1 (human) (UniProt Q00526+P24864) in the same assay as above. Details: compound 0.5 µM; ATP 10 µM.

Row | Compound | residual activity [%]
59 | Nc1nc(Nc2ccc(S(N)(=O)=O)cc2)nn1C(=O)c1c(F)cccc1F | 32.4
60 | CSc1nc(-c2ccc(F)cc2)c(-c2ccnc(NC(C)c3ccccc3)c2)[nH]1 (configuration not stated) | 85.3
61 | CCCNC(=O)Nc1ccc(Oc2ncnc3cc(OC)c(OC)cc23)cc1Cl | 94
62 | O=C1Nc2cc(Br)ccc2/C1=C1/Nc2ccccc2/C1=N\O | 25.2

What follows are compounds tested against INSRR (human) (UniProt P14616) in the same assay as above. Details: compound 0.5 µM; ATP 10 µM.
INSRR (human), sequence (P14616 whole entry, looked up): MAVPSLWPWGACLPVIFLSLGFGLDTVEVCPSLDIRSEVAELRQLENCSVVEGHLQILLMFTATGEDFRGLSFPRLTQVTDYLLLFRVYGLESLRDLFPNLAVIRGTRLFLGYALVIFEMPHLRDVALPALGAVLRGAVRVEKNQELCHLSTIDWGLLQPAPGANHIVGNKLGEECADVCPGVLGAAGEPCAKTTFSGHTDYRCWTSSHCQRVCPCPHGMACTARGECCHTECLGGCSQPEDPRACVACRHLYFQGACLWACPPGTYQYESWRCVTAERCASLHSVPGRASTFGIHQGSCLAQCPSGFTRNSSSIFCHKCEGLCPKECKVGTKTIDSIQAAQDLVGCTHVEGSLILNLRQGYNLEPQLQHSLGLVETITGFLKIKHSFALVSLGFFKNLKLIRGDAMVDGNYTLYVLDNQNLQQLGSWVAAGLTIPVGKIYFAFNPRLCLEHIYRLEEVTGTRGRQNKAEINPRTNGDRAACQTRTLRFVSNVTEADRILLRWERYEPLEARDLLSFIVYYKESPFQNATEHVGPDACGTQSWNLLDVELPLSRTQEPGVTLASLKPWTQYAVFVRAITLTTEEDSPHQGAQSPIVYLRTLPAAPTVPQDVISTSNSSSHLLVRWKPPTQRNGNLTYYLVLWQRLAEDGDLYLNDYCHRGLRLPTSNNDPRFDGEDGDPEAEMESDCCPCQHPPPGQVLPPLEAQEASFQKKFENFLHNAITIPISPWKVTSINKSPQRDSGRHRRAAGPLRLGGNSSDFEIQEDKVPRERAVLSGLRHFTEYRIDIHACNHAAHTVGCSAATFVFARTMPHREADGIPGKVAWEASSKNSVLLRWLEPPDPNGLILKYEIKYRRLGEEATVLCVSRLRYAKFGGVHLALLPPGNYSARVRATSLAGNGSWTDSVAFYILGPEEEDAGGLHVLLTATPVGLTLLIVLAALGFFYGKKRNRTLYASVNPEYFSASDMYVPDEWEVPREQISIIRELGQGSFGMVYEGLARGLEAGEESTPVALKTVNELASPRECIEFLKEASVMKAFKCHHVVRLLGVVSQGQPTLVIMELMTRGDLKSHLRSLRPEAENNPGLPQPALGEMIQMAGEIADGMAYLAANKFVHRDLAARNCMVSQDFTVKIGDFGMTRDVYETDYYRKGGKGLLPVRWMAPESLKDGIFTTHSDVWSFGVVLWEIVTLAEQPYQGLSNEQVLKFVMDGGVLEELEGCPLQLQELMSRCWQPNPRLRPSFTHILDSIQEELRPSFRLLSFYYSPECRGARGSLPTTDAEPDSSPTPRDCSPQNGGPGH

Row | Compound | residual activity [%]
63 | Nc1nc(Nc2ccc(S(N)(=O)=O)cc2)nn1C(=O)c1c(F)cccc1F | 93.8
64 | CSc1nc(-c2ccc(F)cc2)c(-c2ccnc(NC(C)c3ccccc3)c2)[nH]1 (configuration not stated) | 98.9
65 | CCCNC(=O)Nc1ccc(Oc2ncnc3cc(OC)c(OC)cc23)cc1Cl | 98.4
66 | O=C1Nc2cc(Br)ccc2/C1=C1/Nc2ccccc2/C1=N\O | 81

The compounds below were run against SYK (human) (UniProt P43405) in the same assay as above. Details: compound 0.5 µM; ATP 10 µM.

Row | Compound | residual activity [%]
67 | Nc1nc(Nc2ccc(S(N)(=O)=O)cc2)nn1C(=O)c1c(F)cccc1F | 61.6
68 | CSc1nc(-c2ccc(F)cc2)c(-c2ccnc(NC(C)c3ccccc3)c2)[nH]1 (configuration not stated) | 96.8
69 | CCCNC(=O)Nc1ccc(Oc2ncnc3cc(OC)c(OC)cc23)cc1Cl | 97.5
70 | O=C1Nc2cc(Br)ccc2/C1=C1/Nc2ccccc2/C1=N\O | 45.7

Each compound was assayed against LYN (human) (UniProt P07948) in the same assay as above. Details: compound 0.5 µM; ATP 10 µM.

Row | Compound | residual activity
71 | Nc1nc(Nc2ccc(S(N)(=O)=O)cc2)nn1C(=O)c1c(F)cccc1F | 103% and 80.5%
72 | CSc1nc(-c2ccc(F)cc2)c(-c2ccnc(NC(C)c3ccccc3)c2)[nH]1 (configuration not stated) | 89.4% and 98.5%
73 | CCCNC(=O)Nc1ccc(Oc2ncnc3cc(OC)c(OC)cc23)cc1Cl | 75.5% and 94.1%
74 | O=C1Nc2cc(Br)ccc2/C1=C1/Nc2ccccc2/C1=N\O | 14.7% and 5.98%

The compounds below were run against NLK (human) (UniProt Q9UBE8) in the same assay as above. Details: compound 0.5 µM; ATP 10 µM.

Row | Compound | residual activity [%]
75 | Nc1nc(Nc2ccc(S(N)(=O)=O)cc2)nn1C(=O)c1c(F)cccc1F | 86
76 | CSc1nc(-c2ccc(F)cc2)c(-c2ccnc(NC(C)c3ccccc3)c2)[nH]1 (configuration not stated) | 30.7
77 | CCCNC(=O)Nc1ccc(Oc2ncnc3cc(OC)c(OC)cc23)cc1Cl | 90.7
78 | O=C1Nc2cc(Br)ccc2/C1=C1/Nc2ccccc2/C1=N\O | 101

What follows are compounds tested against GRK4 (human) (UniProt P32298) in the same assay as above. Details: compound 0.5 µM; ATP 10 µM.

Row | Compound | residual activity [%]
79 | Nc1nc(Nc2ccc(S(N)(=O)=O)cc2)nn1C(=O)c1c(F)cccc1F | 94.7
80 | CSc1nc(-c2ccc(F)cc2)c(-c2ccnc(NC(C)c3ccccc3)c2)[nH]1 (configuration not stated) | 90.6
81 | CCCNC(=O)Nc1ccc(Oc2ncnc3cc(OC)c(OC)cc23)cc1Cl | 94.4
82 | O=C1Nc2cc(Br)ccc2/C1=C1/Nc2ccccc2/C1=N\O | 90.1
